Assay results published in patent EP0200942B1, “New derivatives of an aminoketone” (NIPPON KAYAKU KABUSHIKI KAISHA, priority 1985, dated 1986).

Key:
[1] = Acute toxicity, LD50 in mice intravenously; conditions: mouse, in vivo, iv, read-out: LD₅₀ (Mice; i.v.)
Description: LD₅₀ (mg/kg) of the each test compound given to mice intravenously was determined.

[2] = tested on: Spinal reflex (flexor reflex); assay: Spinal reflex (flexor reflex) inhibitory action, evoked electromyogram in anesthetized rats; format: in vivo, male rats; Wistar strain; conditions: intravenous (i.v.) administration of 5 mg/kg in physiological saline; average amplitude over 30 minutes after vs 10 minutes before administration; rats anesthetized with urethane and α-chloralose
Description: 1. Spinal reflex (flexor reflex) inhibitory action
Animals (male rats; Wistar strain) were anesthetized with urethane and α-chloralose, and their tibial nerve was dissected, and stimulated (0.1 msec, 0.1 Hz, ultra-maximum stimulation) by the stimulator (Model MSE-3; Nippon Koden). […] The amplitude of this evoked electromyogram was recorded on a pen recorder through a peak holder.The activity of the compounds was expressed by flexor reflex inhibition rate. That is, the flexor reflex inhibition rate was calculated from the following equation (A): [formula] wherein A is the average amplitude of the electromyogram in the period of 10 minuts before the administration of the test compound, and B is the average amplitude of the electromyogram in the period of 30 minutes after the intravenous (i.v.) administration of 5 mg/kg of the test compound dissolved in a physiological saline solution.

[3] = tested on: ischemic decerebrate rigidity; assay: Action to ischemic decerebrate rigidity of rat (Fukuda et al method); format: in vivo, male Wistar rat; conditions: intravenous administration 3.5 mg/kg; average forepaw tension for 10 minutes at peak period after vs before administration
Excerpt: 2. Action to ischemic decerebrate rigidity of rat
The effects on the ischemic decerebrate rigidity were investigated by using Fukuda et al method (H. Fukuda, T. Ito, S. Hashimoto and Y. Kudo: Japan. J. Pharmacol., 24, 810 (1974)). The rigidity is due to hyperactivity of α-motorneurones. The rigid animals provide a good experimental model for some type of spasticity in man.
A tracheal cannula was inserted in each of male Wistar rat under ether anesthesia. Both of common carotid arteries were ligated and the basilar artery was cauterized with a bipolar coagulator to block the blood circulation and to prepare a rigidity sample. The rigidity was recorded as described below. A rat was fixed on its back on a fixing stand and its forepaws were allowed to grisp an end of a celluloid plate provided with strain gauges on both sides thereof. A change of the resistance observed when the celluloid plate was forced up by the rigidity of the forepaws was recorded as a tension through a bridge circuit on a self-balancing recorder. A rigidity inhibition rate was calculated according to the following equation: [formula] when C represents an average tension (g) for 10 minutes at peak period before the administration of a test compound and D represents an average tension (g) for 10 minutes at peak period recorded after the intravenous administration 3.5 mg/kg of a test compound.

Row | Structure (SMILES) | LD50 [1] | Inhibition rate (%) (flexor reflex inhibition rate) [2] | Inhibition rate (%) (rigidity inhibition rate) [3]
1 | CCC(CN1CCCC1)C(=O)c1ccc(OC)c2c1CCCC2 (stereo not drawn) [2-11, 1-(4-Methoxy-5,6,7,8-tetrahydro-1-naphthyl)-2-ethyl-3-pyrrolidino-1-propanone] | 35.4 mg/kg | 50.0% | 53.9%
2 | COc1ccc(C(=O)C(C)CN2CCCC2)c2c1CCCC2 (stereo not drawn) [2-1, 1-(4-Methoxy-5,6,7,8-tetrahydro-1-naphthyl)-2-methyl-3-pyrrolidino-1-propanone] | 38.1 mg/kg | 53.6% | 46.1%
3 | CC(CN1CCCC1)C(=O)c1ccc(C(F)(F)F)cc1 (stereo not drawn) [4-1, 1-(4-Trifluoromethylphenyl)-2-methyl-3-pyrrolidino-1-propanone] | 61.1 mg/kg | 40.3% | 23.6%
